Here are results for one compound from patent publication US10168338B2, “Methods of identifying modulators of sestrin-gator-2 interaction for modulating mTORC1 activity” (Whitehead Institute for Biomedical Research, priority 2014, dated 2019).

One assay concerns the target T1, Sestrin2-GATOR2 complex (Homo sapiens, UniProt P58004).
T1 construct: To isolate the FLAG-WDR24/endogenous-Sestrin2 complex; endogenous in cells; host or cells: HEK-293T cells stably expressing FLAG-WDR24; Sestrin2 and the other GATOR2 subunits are endogenous
T1 sequence (P58004 1-480): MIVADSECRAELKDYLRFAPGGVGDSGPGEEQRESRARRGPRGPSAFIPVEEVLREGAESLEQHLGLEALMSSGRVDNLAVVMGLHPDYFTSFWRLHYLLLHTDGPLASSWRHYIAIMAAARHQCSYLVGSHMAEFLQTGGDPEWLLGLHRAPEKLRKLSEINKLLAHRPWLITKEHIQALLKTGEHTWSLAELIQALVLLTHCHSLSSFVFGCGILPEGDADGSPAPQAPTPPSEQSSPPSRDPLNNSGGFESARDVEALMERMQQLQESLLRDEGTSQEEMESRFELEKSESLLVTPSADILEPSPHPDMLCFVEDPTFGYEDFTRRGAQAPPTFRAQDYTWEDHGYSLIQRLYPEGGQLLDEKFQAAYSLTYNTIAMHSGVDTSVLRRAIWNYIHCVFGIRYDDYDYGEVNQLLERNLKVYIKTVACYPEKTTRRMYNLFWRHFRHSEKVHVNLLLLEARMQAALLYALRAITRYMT
The experiment in a line: Amino acids added to ice-cold detergent lysates of amino acid-starved HEK-293T cells, FLAG immunoprecipitation. The format is binding. As to conditions: ice-cold detergent lysates of HEK-293T cells starved for all amino acids. As to the method: (§1) HEK-293T cells stably expressing the FLAG-tagged GATOR2 component WDR24 were starved of all amino acids for 50 minutes. Individual amino acids were added pre-lysis to the cell culture media or post-lysis to cell lysates prior to FLAG immunoprecipitation.
We next tested if leucine acts directly on the Sestrin2-GATOR2 complex.

For another assay, the system named is Sestrin1. The experiment in a line: [3H]-leucine binding to FLAG-Sestrin1 immunoprecipitated from HEK-293T cells. More on the design: species or system human. The conditions noted are these: FLAG-tagged protein from HEK-293T. As to the method: Four million HEK-293T cells were plated in a 15 cm plate four days prior to the experiment. Each plate yielded the protein for one sample. Forty-eight hours after plating, the cells were transfected via the polyethylenimine method (O. Boussif et al., PNAS (USA), 92:7297-7301 (1995)) with the pRK5-based cDNA expression plasmids indicated in the figures in the following amounts: 5 μgFLAG-Sestrin2; 12 μg of the negative control Rap2A; 5 μg WDR24; 2 μg WDR24 with 4 μg each of HA-Seh1L, HA-Sec13, HA-Mios, and HA-WDR59; 12 […] (CG11299-PD); 12 μgFLAG-Sestrin1.1; 12 μg FLAG-Sestrin1.2; 12 μg FLAG-Sestrin3; 12 μg FLAG-Sestrin2 mutants (L261A, E451A, S190A) and up to 20 μg total DNA with empty-PRK5. Forty-eight hours after transfection cells were lysed as described in Example 1. […]
For the binding assays, two tubes at a time were washed as previously indicated for immunoprecipitations. […] With a cut tip, each sample was mixed well and three 10 μl aliquots were separately quantified using a TriCarb® scintillation counter (PerkinElmer). This process was repeated in pairs for each sample, to ensure similar incubation and wash times for all samples analyzed across different experiments.

In assay [1] the target is T2, bacterially-produced Sestrin2 (Homo sapiens, UniProt P58004).
T2 construct: made in house; host or cells: Escherichia coli BL21 DE3 star
T2 sequence (P58004 1-480): T1 sequence (P58004 1-480)
The experiment in a line: Thermal shift (protein melting) assay. The conditions noted are these: Sestrin2 at 4 μM, Sypro orange; read-out: shift of the melting temperature of Sestrin2. In kind it is binding. As for the experimental part:
Specific binding of leucine to the bacterially produced Sestrin2 was further confirmed by thermal shift assays. The thermal shift (protein melting) assays were performed according to the LightCycler® 480 instruction manual. Briefly, for Sestrin2, 5× Sypro® orange dye and Sestrin2 at 4 μM were combined with or without leucine or arginine (at the indicated concentrations) in thermal shift buffer (100 mM Tris pH 7.4, 100 mM NaCl, and 1 mM DTT) in a volume of up to 10 μl in one well of a LightCycler® Multiwell 384-well plate. 20× Sypro® orange dye was used for the two control proteins, human choline acetyltransferase (ChAT) (at 4 μM) or Physconitrella patens hydroxycinnamoyl transferase (PpHCT) (at 2.5 μM). Each condition was tested in triplicate. The plate was subjected to a protocol in which the temperature increased from 20° to 85° C. at 0.06° C./second. Fluorescence was recorded and plotted over time, and melting temperatures were calculated as described in the LightCycler® 480 instruction manual. Briefly, the negative first derivative of the curve shown (change in fluorescence/change in temperature) was plotted against the temperature. The peak (i.e., lowest point on this curve) reflects the melting temperature. Each reported melting temperature is the mean±SD for three replicates from one experiment.

Assay [2] concerns the target T3, Sestrin-GATOR2 interaction (Homo sapiens, UniProt P58004).
T3 construct: To isolate the FLAG-WDR24/endogenous-Sestrin2 complex; endogenous in cells; host or cells: HEK-293T cells stably expressing FLAG-WDR24; Sestrin2 and the other GATOR2 subunits are endogenous
T3 sequence (P58004 1-480): T1 sequence (P58004 1-480)
Briefly: Effect of specific amino acids on Sestrin-GATOR2 interaction (FLAG-WDR24 immunoprecipitation, immunoblot). In kind it is cell-based. The conditions noted are these: HEK-293T stably expressing FLAG-WDR24; starvation/restimulation, pre- or post-lysis addition, washes of immunoprecipitates. As for the experimental part: In order to further explore if specific amino acid levels affected the Sestrin-GATOR2 interaction, HEK-293T cells stably expressing the FLAG-tagged GATOR2 component WDR24 (and FLAG-tagged metap2 as a control) were starved of either all amino acids (ALL); only leucine, arginine, and lysine (LRK); only leucine (L); only arginine (R); or only lysine (K) for 50 minutes, or starved for 50 minutes and restimulated for 10 minutes with the indicated amino acids.
as §1
Finally, HEK-293T cells stably expressing the FLAG-tagged GATOR2 component WDR24 were starved of all amino acids for 50 minutes. Immunoprecipitates were subjected to washes containing the indicated amounts of leucine or arginine and analyzed along with cell lysates by immunoblotting for the indicated proteins as shown in FIG. 8C.
(In general: A western blot detects proteins with antibodies after separation by electrophoresis.)

Regarding `CC(C)C[C@H](N)C(=O)O` [leucine], the “effect on Sestrin2-GATOR2 interaction when added to cell lysates” value at Sestrin2-GATOR2 complex is “abrogated the interaction”. For the same compound, the “binding of leucine to Sestrin1” value with Sestrin1 was “to a similar extent as Sestrin2”. Besides, the ΔTm in assay [1] was at most 8.5 °C. For the same compound, in assay [2], the “disruption of the Sestrin-GATOR2 interaction” value is on record as “disrupts the Sestrin-GATOR2 interaction”.
